Converted amounts (≈) assume the structure as drawn. “Also recorded” adds a separate entry of the source. Where two headings read alike, the source gives them in different places. Positions of bridges follow the written chain, without caps; N, C: chain ends. Residues, ends and D or L forms follow the SMILES beside them.
Columns and labels:
[1] = test system: primary ovarian cancer cells; assay type: cell-based, human
Experimental: Fresh primary ovarian tumor tissues that were assessed and classified as serous ovarian adenocarcinoma (III-IV grade) according to WHO criteria were collected from 53 ovarian cancer patients who underwent initial debulking surgery at the first affiliated hospital of Anhui Medical University between June 2012 and June 2014. All patients had not received adjuvant therapies, such as chemotherapy or radiotherapy, prior to surgery. For comparison, normal ovarian glandular epithelium cells (NOGECs) were cultured from fresh primary normal ovarian tissues harvested from 7 patients with uterine fibromas, which were confirmed as negative for any neoplastic disease by pathological examination. Prior to tissue deposition, all patients signed written consent forms confirming their donation of tissue for research purposes according to the Declaration of Helsinki. This study was approved by the Anhui Medical University Review Board. Tumor or normal ovarian tissues were cut into small 1.0 mm^3 pieces, rinsed two times in phosphate buffered saline (PBS) and digested with 0.25 % trypsin in a sterile centrifuge tube at 37 °C for 30 min. To obtain a single cell suspension cell, digested tissues were filtered with a 100 μm cell strainer. Cells were collected by centrifugation at 1000 rpm for five minutes, and the cell pellet was re-suspended in Dulbecco’s modified eagle medium (DMEM) supplemented with 10 % fetal bovine serum (FBS). Cells were subsequently cultured in DMEM containing 0.1 mg/L epidermal growth factor (EGF), 0.1 mg/L insulin-like growth factor (IGF) and 0.1 mg/L beta-estradiol with 10 % FBS in 5 % CO2 at 37 °C. Once cells reached 70 to 80 % confluence, cell culture medium was drained from the flask, and cells were digested with 0.25 % collagenase II until approximately 1/3 of the cells fell to the bottom of the dish by eye using a microscope. Due to their initial shedding, most fibroblasts were eliminated by collagenase digestion. The remaining cells were cultured in 5 % CO2 at 37 °C. To determine purity, cells were analyzed using immunofluorescence of cytokeratin 7 (for ovarian cancer cells) or cytokeratin 19 (for normal ovarian epithelium cells).
Primary ovarian cancer cells were seeded into 96-well plates in sextuplicate at a starting density of 5 × 10^3 cells/well and incubated with ACFP at the concentrations: 0 (as control), 5 × 10^−6, 5 × 10^−5, 5 × 10^−4, 5 × 10^−3, 5 × 10^−2, 5 × 10^−1 and 5 g/L for 24, 48 and 72 h, respectively. Cells treated with paclitaxel at 5 × 10^−4 g/L were included in the same plate as a positive control. Cell viability was later measured using the WST-1 (water-soluble tetrazolium 1) cell viability and cytotoxicity assay kit (Beyotime, Haimen, China) according to the manufacturer’s instructions. The percent viability of cells was calculated using the formula to calculate the cell viability ratio (VR): VR (%) = (the experimental group A450nm value/control group A450nm value) × 100 %. To assess general toxicity of ACFP, viability of normal ovarian cells treated with ACFP was assayed using the same procedure. The effect of ACFP was compared with LfcinB and PGPIPN (the products of Shanghai Sangon Biological Engineering Technology, China). Each experiment was performed in two independent sets.

[2] = test system: normal ovarian glandular epithelium cells (NOGECs); assay: WST-1 viability assay, general toxicity; assay type: cell-based, human; conditions: WST-1, compared with paclitaxel, Fig. 3b, cells from 7 patients
Experimental: Fresh primary ovarian tumor tissues that were assessed and classified as serous ovarian adenocarcinoma (III-IV grade) according to WHO criteria were collected from 53 ovarian cancer patients who underwent initial debulking surgery at the first affiliated hospital of Anhui Medical University between June 2012 and June 2014. All patients had not received adjuvant therapies, such as chemotherapy or radiotherapy, prior to surgery. For comparison, normal ovarian glandular epithelium cells (NOGECs) were cultured from fresh primary normal ovarian tissues harvested from 7 patients with uterine fibromas, which were confirmed as negative for any neoplastic disease by pathological examination. […] To determine purity, cells were analyzed using immunofluorescence of cytokeratin 7 (for ovarian cancer cells) or cytokeratin 19 (for normal ovarian epithelium cells).
Primary ovarian cancer cells were seeded into 96-well plates in sextuplicate at a starting density of 5 × 10^3 cells/well and incubated with ACFP at the concentrations: 0 (as control), 5 × 10^−6, 5 × 10^−5, 5 × 10^−4, 5 × 10^−3, 5 × 10^−2, 5 × 10^−1 and 5 g/L for 24, 48 and 72 h, respectively. […] Cell viability was later measured using the WST-1 (water-soluble tetrazolium 1) cell viability and cytotoxicity assay kit (Beyotime, Haimen, China) according to the manufacturer’s instructions. […]

[3] = test system: primary ovarian cancer cells; assay: Real time PCR of bcl-xl, bax, akt, caspase-3, CDC25C and cyclinB1 mRNA; assay type: cell-based, human; conditions: increasing concentration, 48 h, 2^-ΔΔCt, β-actin reference, 12 patients
Source text: An optimized RT-PCR protocol was employed to analyze the mRNA levels of bcl-xl, bax, akt, caspase-3, CDC25C and cyclinB1. Beta-actin was used as a housekeeping gene. According to primer sequences of bcl-xl, bax, akt, caspase-3, CDC25C, cyclinB1 and β-actin genes retrieved from Primer-Bank, primers were designed with the Primer 5.0 software, which were synthesized by Shanghai Sangon Biological Engineering Technology. These primer sequences are as follows: • bcl-xl forward 5′-[…]-3′, • bcl-xl reverse 5′-[…]-3′; • bax forward 5′-[…]-3′, • bax reverse 5′-[…]-3′; • akt forward 5′-[…]-3′, • akt reverse 5′-[…]-3′; • caspase-3 forward 5′-[…]-3′, • caspase-3 reverse 5′[…]-3′; • CDC25C forward 5′-[…]-3′, • CDC25C reverse 5′-[…]-3′; • cyclinB1 forward 5′-[…]-3′, • cyclinB1 reverse 5′-[…]-3′; • β-actin forward 5′-[…]-3′, • β-actin reverse 5′-[…]-3′.
Primary ovarian cancer cells were harvested after ACFP treatment at different doses and times, respectively. The total RNAs in the primary ovarian cancer cells were extracted according to the Trizol kit manufacturer’s instructions, and the purity and concentration were determined by ultraviolet spectrophotometry. […]
Real time PCR adopts TaKaRa SYBR Green as real time PCR Master Mix in ABI7500 fluorescent real-time PCR instrument. […] Finally, the relative mRNA expression of all samples were calculated using the 2^-ΔΔCt method. […]

[4] = oil (octanol)/water partition coefficient; assay type: physicochemical; conditions: pH 7, preliminary experiments
[5] = solubility in water and octanol; assay type: physicochemical
stability in pH 7 water = assay type: physicochemical; conditions: n=3, Figure S2

## CC[C@H](C)[C@@H]1NC(=O)[C@H](CO)NC(=O)[C@@H]2CCCN2C(=O)[C@H](C)NC(=O)CNC(=O)[C@H](CC(C)C)NC(=O)[C@H](CCCCN)NC(=O)[C@H](CCCCN)NC(=O)[C@H](CCSC)NC(=O)[C@H](CCCNC(=N)N)NC(=O)[C@H](Cc2c[nH]c3ccccc23)NC(=O)[C@H](CCC(N)=O)NC(=O)[C@H](Cc2c[nH]c3ccccc23)NC(=O)[C@H](CCCNC(=N)N)NC(=O)[C@H](CCCNC(=N)N)NC(=O)[C@@H](NC(=O)[C@H](CCCCN)NC(=O)[C@@H](N)Cc2ccccc2)CSSC[C@@H](C(=O)N[C@H](C(=O)N[C@@H](CCCNC(=N)N)C(=O)N[C@@H](CCCNC(=N)N)C(=O)N[C@@H](C)C(=O)N[C@@H](Cc2ccccc2)C(=O)NCC(=O)NCC(=O)NCC(=O)NCC(=O)N[C@@H](CO)C(=O)N2CCC[C@H]2C(=O)NCC(=O)N2CCC[C@H]2C(=O)N[C@H](C(=O)N2CCC[C@H]2C(=O)N[C@@H](CC(N)=O)C(=O)O)[C@@H](C)CC)C(C)C)NC(=O)[C@H]([C@@H](C)O)NC1=O [ACFP] (H-FKCRRWQWRMKKLGAPSITCVRRAFGGGGSPGPIPN-OH; disulfide 3-20; N-terminus and C-terminus assumed)
[1]; 24 h
  IC50, cell viability: 11.5 mg/L (≈ 2.86 µM)
[1]; 48 h
  IC50, cell viability: 1.63 mg/L (≈ 0.406 µM)
[1]; 72 h
  IC50, cell viability: 0.388 mg/L (≈ 0.0966 µM)
[1]; different concentrations, 48 h, in vitro, n=12, Figure S1
  growth of human primary ovarian cells: decreased growth
[2]
  cytotoxicity toward normal primary ovarian cells: little or no cytotoxicity
[3]
  mRNA expression of bax and caspase-3: gradual increase
  mRNA expression of bcl-xl, akt, CDC25C and cyclinB1: gradually decreased
[4]
  logD: -0.91
[5]
  solubility in fat (octanol): slightly soluble
  solubility in water: easily dissolve
Stability in pH 7 water
  stability: very stable; also recorded: good stability

Source: publication PMC4806491, “The milk-derived fusion peptide, ACFP, suppresses the growth of primary human ovarian cancer cells by regulating apoptotic gene expression and signaling pathways” (BMC Cancer, 2016)
